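Each compound was tested at five concentrations against cells in 96-well plates for 48 hours. GI50 is the concentration that inhibits growth by half.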 Active and inactive are the calls of the source. Cut-off read from the data, not from the text of the source: active = GI50 up to about 1.1 µM and inactive = higher.

Some test systems named below: A498; COLO 205; M14; Malme-3M; NCI-H460; OVCAR-3; OVCAR-5; RPMI-8226; SF-539; SK-MEL-2; SK-MEL-5; SNB-19; UACC-257; UACC-62; HCT-15; HL-60; LOX IMVI; NCI-H226.
What all share (assay): DTP human tumour cell line panel, 48 h

The GI50 is the concentration at which growth is held to half of that of the control. As for `COc1cc2c(cc1OC)C(C(=O)O)C(c1ccccc1)N(C)C2=O` (stereo unspecified), the GI50 in the assay with A498, in the assay on COLO 205, in the assay on M14, with Malme-3M, with NCI-H460 and in the assay with OVCAR-3 was > 100 µM (inactive) each time. Moreover, the GI50 with OVCAR-5, in the assay with RPMI-8226, in the assay on SF-539, with SK-MEL-2, with SK-MEL-5 and in the assay with SNB-19 was > 100 µM (inactive) in each case. Further, the GI50 in the assay with UACC-257 and in the assay on UACC-62 was > 100 µM (inactive) each time.
As to `CC(CN(C)C)/C(=N\Nc1ccccc1)c1ccccc1` (stereo unspecified), the GI50 in the assay with A498 was 29.2 µM (inactive); in the assay with COLO 205, 1.03 µM (active); with HCT-15 it was 0.0955 µM; with HL-60, 0.419 µM (active); with LOX IMVI, 0.0456 µM (active); in the assay with M14, 1.46 µM (inactive). For the same molecule, the GI50 is 10.7 µM (inactive) in the assay with Malme-3M; 0.171 µM (active) in the assay with NCI-H460; 1.16 µM (inactive) in the assay on OVCAR-3; 1.38 µM (inactive) with OVCAR-5; 0.366 µM (active) in the assay with RPMI-8226; 0.272 µM (active) in the assay on SF-539. In addition, the GI50 in the assay with SK-MEL-5 is 3.3 µM (inactive); in the assay on SNB-19, 3.72 µM (inactive); in the assay with UACC-257, 2.12 µM (inactive); with UACC-62, 0.0755 µM (active).
Regarding `Cn1cccc(C(=O)c2ccccc2)c1=O`, the GI50 with COLO 205 is > 100 µM (inactive); in the assay on HCT-15, over 100 µM; with HL-60, > 100 µM (inactive); in the assay with LOX IMVI, > 100 µM (inactive); in the assay on M14 it was > 100 µM (inactive); with Malme-3M, > 100 µM (inactive). The GI50 with NCI-H226, in the assay with NCI-H460, in the assay on OVCAR-3, with OVCAR-5, with RPMI-8226 and in the assay with SF-539 was > 100 µM (inactive) each time. Further, the GI50 with SK-MEL-2, in the assay on SK-MEL-5, in the assay with SNB-19, with UACC-257 and in the assay on UACC-62 was > 100 µM (inactive) in each case.
`Cc1cc(C)nc(NS(=O)(=O)c2ccc(NC(=O)c3cccc4c(N)c5ccccc5nc34)cc2)n1`: the GI50 in the assay with A498 is > 100 µM (inactive); with COLO 205, > 100 µM (inactive); with HCT-15, over 100 µM; with LOX IMVI, 53.6 µM (inactive); with M14 it was > 100 µM (inactive); in the assay with Malme-3M it was > 100 µM (inactive). For the same molecule, the GI50 in the assay on NCI-H226 was > 100 µM (inactive); in the assay with NCI-H460, > 100 µM (inactive); with OVCAR-3 it was > 100 µM (inactive); in the assay on OVCAR-5, > 100 µM (inactive); in the assay with RPMI-8226, 34.2 µM (inactive); in the assay on SF-539, 31.6 µM (inactive). Further, the GI50 in the assay on SK-MEL-2, in the assay with SK-MEL-5, in the assay on SNB-19, in the assay on UACC-257 and with UACC-62 was > 100 µM (inactive) throughout.
Regarding `CCN(CC)CCOC(=O)/C(=C/c1ccc(OC)cc1)c1cc(OC)c(OC)c(OC)c1`, the GI50 in the assay with A498 is 2.48 µM (inactive); with COLO 205 it was 5.75 µM (inactive); with HCT-15, 4.82 µM; in the assay on HL-60 it was 3.3 µM (inactive); with LOX IMVI, 5.08 µM (inactive); in the assay on M14 it was 6.43 µM (inactive). The GI50 in the assay on Malme-3M was 10.1 µM (inactive); with NCI-H226, 13.5 µM (inactive); in the assay on NCI-H460, 9.66 µM (inactive); in the assay on OVCAR-3 it was 4.95 µM (inactive); in the assay with OVCAR-5 it was 16.4 µM (inactive); with RPMI-8226 it was 16 µM (inactive). Also, the GI50 with SF-539 was 3.28 µM (inactive); with SK-MEL-5, 3.26 µM (inactive); in the assay on SNB-19, 13.4 µM (inactive); in the assay on UACC-257, 5.46 µM (inactive); in the assay on UACC-62, 3.71 µM (inactive).
For the molecule `Cc1ccc([N+]2=NC(c3ccc([N+](=O)[O-])cc3)=NN(c3ccccc3)C2)cc1`, the GI50 in the assay with A498 was 95.9 µM (inactive); with COLO 205, > 100 µM (inactive); in the assay with HCT-15 it was 38.6 µM; with HL-60 it was 61.7 µM (inactive); in the assay on LOX IMVI, 60 µM (inactive); with Malme-3M, > 100 µM (inactive). Also, the GI50 with NCI-H226 is > 100 µM (inactive); with NCI-H460, 41 µM (inactive); in the assay on OVCAR-3 it was > 100 µM (inactive); with OVCAR-5, > 100 µM (inactive); in the assay on RPMI-8226, 57.4 µM (inactive); with SK-MEL-5 it was 33.2 µM (inactive). For the same molecule, the GI50 in the assay with SNB-19 is 75.3 µM (inactive); in the assay with UACC-257, 47.1 µM (inactive).
Regarding `CCOC1(COP(=O)(OCc2ccccc2)OCc2ccccc2)COC(COP(=O)(OCc2ccccc2)OCc2ccccc2)(OCC)CO1` (stereo unspecified), the GI50 with COLO 205 is > 100 µM (inactive); with HCT-15, over 100 µM; in the assay on HL-60, 30.8 µM (inactive); in the assay with LOX IMVI, > 100 µM (inactive); in the assay on M14 it was > 100 µM (inactive); with Malme-3M, > 100 µM (inactive). In addition, the GI50 is 89.7 µM (inactive) in the assay on NCI-H226; 95.7 µM (inactive) with NCI-H460; > 100 µM (inactive) in the assay on OVCAR-3; > 100 µM (inactive) in the assay on OVCAR-5; 74.6 µM (inactive) in the assay with RPMI-8226; > 100 µM (inactive) in the assay with SF-539. In addition, the GI50 with SK-MEL-2, in the assay with SK-MEL-5, in the assay with SNB-19, in the assay with UACC-257 and in the assay on UACC-62 was > 100 µM (inactive) in each case.
For the molecule `CC(=O)OCC1OC(OCc2ccccc2)C(Br)C(OC(C)=O)C1OC(C)=O` (stereo unspecified), the GI50 in the assay with A498 is > 100 µM (inactive); with COLO 205 it was > 100 µM (inactive); in the assay on HCT-15 it was over 100 µM; with HL-60 it was > 100 µM (inactive); in the assay with LOX IMVI, > 100 µM (inactive); with M14, > 100 µM (inactive). In addition, the GI50 in the assay on Malme-3M, with NCI-H226, in the assay with NCI-H460, with OVCAR-3, in the assay on OVCAR-5 and in the assay with RPMI-8226 was > 100 µM (inactive) in each case. In addition, the GI50 with SF-539, in the assay with SK-MEL-5, with SNB-19, in the assay on UACC-257 and in the assay with UACC-62 was > 100 µM (inactive) throughout.
As for `CC(=O)Nc1ccc2c(c1)C(=O)c1ccccc1-2`, the GI50 with COLO 205 is > 100 µM (inactive); in the assay on HCT-15 it was over 100 µM; with HL-60, > 100 µM (inactive); with LOX IMVI, > 100 µM (inactive); with M14 it was > 100 µM (inactive); in the assay on Malme-3M, > 100 µM (inactive). In addition, the GI50 in the assay with NCI-H226, in the assay on NCI-H460, in the assay on OVCAR-3, in the assay with RPMI-8226, in the assay with SF-539 and in the assay on SNB-19 was > 100 µM (inactive) in each case. In addition, the GI50 in the assay on UACC-257 and in the assay on UACC-62 was > 100 µM (inactive) in each case.
In the case of `CC(=O)CC(=O)CCCC(=O)Nc1ccc(Cl)cc1Cl`, the GI50 in the assay on COLO 205 is > 100 µM (inactive); in the assay with HCT-15 it was over 100 µM; in the assay on HL-60 it was > 100 µM (inactive); with LOX IMVI, > 100 µM (inactive); in the assay on M14, > 100 µM (inactive); in the assay on Malme-3M it was > 100 µM (inactive). Besides, the GI50 in the assay with NCI-H226, with NCI-H460, with OVCAR-3, with OVCAR-5, in the assay with RPMI-8226 and in the assay on SF-539 was > 100 µM (inactive) in each case. Also, the GI50 in the assay on SK-MEL-2, with SNB-19, in the assay on UACC-257 and with UACC-62 was > 100 µM (inactive) throughout.
For `O=C(Nc1nc2ccc([N+](=O)[O-])cc2s1)C(=O)C(C(=O)c1ccncc1)C1OC(=O)c2ccccc21` (stereo unspecified), the GI50 was 48.6 µM (inactive) in the assay on A498; > 100 µM (inactive) with COLO 205; over 100 µM in the assay on HCT-15; > 100 µM (inactive) in the assay on HL-60; > 100 µM (inactive) in the assay on M14; > 100 µM (inactive) in the assay on Malme-3M. Besides, the GI50 in the assay with NCI-H226, with OVCAR-3, in the assay on OVCAR-5, with RPMI-8226, with SNB-19 and in the assay on UACC-257 was > 100 µM (inactive) each time. For the same molecule, in the assay with UACC-62, the GI50 was > 100 µM (inactive).
With `Cc1ccc(S(=O)(=O)CC(=O)CC(=O)C(=O)Nc2cccc(C(F)(F)F)c2)cc1`, the GI50 in the assay with HCT-15 was over 100 µM; in the assay with HL-60, 97.1 µM (inactive); in the assay with LOX IMVI it was > 100 µM (inactive); in the assay on M14 it was > 100 µM (inactive); in the assay on Malme-3M, 81.3 µM (inactive); in the assay on NCI-H226, > 100 µM (inactive). Also, the GI50 with OVCAR-3, in the assay with RPMI-8226, in the assay with SF-539, in the assay with SK-MEL-2, in the assay with SK-MEL-5 and in the assay with SNB-19 was > 100 µM (inactive) each time. Further, the GI50 in the assay with UACC-257 and with UACC-62 was > 100 µM (inactive) in each case.
In the case of `Cc1c(/C=N/NC(=O)c2ccc(Cl)cc2)c(=O)n(-c2ccccc2)n1C`, the GI50 was > 100 µM (inactive) with COLO 205; over 100 µM in the assay on HCT-15; > 100 µM (inactive) with HL-60; > 100 µM (inactive) with LOX IMVI; > 100 µM (inactive) in the assay with M14; > 100 µM (inactive) in the assay on Malme-3M. Besides, the GI50 with NCI-H226, in the assay on NCI-H460, in the assay with OVCAR-3, in the assay with RPMI-8226, with SF-539 and with SK-MEL-2 was > 100 µM (inactive) in each case. Further, the GI50 with SNB-19, with UACC-257 and with UACC-62 was > 100 µM (inactive) each time.

Values taken from ChEMBL document CHEMBL1201862, “PubChem BioAssay data set” (2004).
